Drawing on patent US6884421B2, “Pharmaceutical composition for diabetic nephropathy” (Council of Scientific and Industrial Research, priority 2002, dated 2005), this text covers Urinary protein and GFR for one molecule.

Marks after values point to notes of the source that are not given here.

The test system of assay [1] is diabetic rats. Put plainly: Urinary protein excretion by TCA precipitation method in streptozotocin diabetic rats. The assay is classed as in vivo, Male Wistar rats. The settings on record: end of fifth week.
Procedure: Urinary protein is determined at the end of fifth week by TCA precipitation method and the absorbance is measured at 660 nm.
Diabetes is induced in Male Wistar rats weighing between 120 g using streptozotocin at 55 mg/kg body weight and the rats are fed with wheat bran (1 to 5%), guar gum (1 to 2.5%) and butyric acid in the range of 1, 2, 4, 6, 8 and 10 mg/kg body weight/day in drinking water. After 4 days measuring fasting blood glucose level in the plasma and urinary sugar levels assessed the diabetic status.
Diabetes is induced in Male Wistar rats weighing between 120 g using streptozotocin at 55 mg/kg body weight and the rats are fed with wheat bran (1 to 5%), guar gum (1 to 2.5%) and butyric acid in the range of 250, 500 and 750 mg/kg body weight/day in drinking water. After 4 days measuring fasting blood glucose level in the plasma and urinary sugar levels assessed the diabetic status.
Urinary protein is determined at the end of fifth week by TCA precipitation method and the absorbance is measured at 660 nm (Table 2).
Assay [2] relates to diabetic rats. Put plainly: Glomerular Filtration Rate from urinary and plasma creatinine in streptozotocin diabetic rats. The assay is classed as in vivo, Male Wistar rats. The settings on record: end of fifth week, mean ±SEM. The text has this:
Urinary creatinine is estimated by alkaline picrate reagent method. […] The plasma is deproteinsed using tungstic acid prior to creatinine estimation.
The formula used is [formula]

Setting [3] is: FFD-250: fibre fed (wheat bran, guar gum) diabetic rats, 250 mg butyric acid/kg body weight/day in drinking water.
Where [4] appears, read: FFD-500: fibre fed (wheat bran, guar gum) diabetic rats, 500 mg butyric acid/kg body weight/day in drinking water.
The mark [5] stands for this setting: FFD-750: fibre fed (wheat bran, guar gum) diabetic rats, 750 mg butyric acid/kg body weight/day in drinking water.
Setting [6] is: SFD-250: starch fed diabetic rats, 250 mg butyric acid/kg body weight/day in drinking water.
Where [7] appears, read: SFD-500: starch fed diabetic rats, 500 mg butyric acid/kg body weight/day in drinking water.
Where [8] appears, read: SFD-750: starch fed diabetic rats, 750 mg butyric acid/kg body weight/day in drinking water.

As to `CCCC(=O)O` [butyric acid], the Urinary protein is listed as 104.07 ± 11.31^b mg/24 h in the assay with diabetic rats [1] (setting [3]); 88.82 ± 9.82^b mg/24 h with diabetic rats [1] (setting [4]); 90.37 ± 9.14^b mg/24 h in the assay on diabetic rats [1] (setting [5]); 126.77 ± 9.82 mg/24 h with diabetic rats [1] (setting [6]); 124.86 ± 6.81^b mg/24 h with diabetic rats [1] (setting [7]); 115.37 ± 10.91 mg/24 h with diabetic rats [1] (setting [8]). Further, the GFR with diabetic rats [2] (setting [3]) is 10.56 ± 1.05^b mL/min; in the assay with diabetic rats [2] (setting [4]) it was 9.23 ± 1.09^b mL/min; in the assay with diabetic rats [2] (setting [5]) it was 11.64 ± 1.27^b mL/min; in the assay on diabetic rats [2] (setting [6]), 15.99 ± 1.30 mL/min; with diabetic rats [2] (setting [7]), 15.60 ± 1.21 mL/min; with diabetic rats [2] (setting [8]), 15.23 ± 1.04 mL/min.
